Experimental data from patent US9586900B2, “Pyrrolone or pyrrolidinone melanin concentrating hormone receptor-1 antagonists” (BRISTOL-MYERS SQUIBB COMPANY, priority 2012, dated 2017).

target: human melanin concentrating hormone receptor (MCHR1) (Homo sapiens (Human), UniProt Q99705, A5T/E4Q); assay: Radioligand binding assay for assessment of MCHR1 activity; details: Table A; membranes of HEK-293 cells expressing mutated (E4Q, A5T) hMCHR1; competition with [Phe13,[125I]Tyr19]-MCH
Method: Radioligand Binding Assay for Assessment of MCHR1 Activity
An in vitro binding assay was used to determine the compound Ki value or ability to antagonize binding of a peptide agonist to the human melanin concentrating hormone receptor (MCHR1). […] Binding experiments were carried out with 0.5-1.0 μg of membrane protein incubated in a total of 0.2 mL in 25 mM HEPES (pH 7.4) with 10 mM MgCl2, 2 mM EGTA, and 0.1% BSA (Binding Buffer) for 90 min. For competition binding assays, reactions were carried out in the presence of with 0.06-0.1 nM [Phe^13, [^125I]Tyr^19]-MCH and increasing concentrations of unlabeled test molecules. […] Filters were dried, 0.05 mL MicroScint 20 was added to each well and radioactivity was subsequently quantified by scintillation counting on a TOPCOUNT® microplate scintillation counter (Packard). Inhibitory constants were determined by nonlinear least squares analysis using a four parameter logistic equation.

human melanin concentrating hormone receptor (MCHR1), sequence (Q99705 whole entry E4Q/A5T): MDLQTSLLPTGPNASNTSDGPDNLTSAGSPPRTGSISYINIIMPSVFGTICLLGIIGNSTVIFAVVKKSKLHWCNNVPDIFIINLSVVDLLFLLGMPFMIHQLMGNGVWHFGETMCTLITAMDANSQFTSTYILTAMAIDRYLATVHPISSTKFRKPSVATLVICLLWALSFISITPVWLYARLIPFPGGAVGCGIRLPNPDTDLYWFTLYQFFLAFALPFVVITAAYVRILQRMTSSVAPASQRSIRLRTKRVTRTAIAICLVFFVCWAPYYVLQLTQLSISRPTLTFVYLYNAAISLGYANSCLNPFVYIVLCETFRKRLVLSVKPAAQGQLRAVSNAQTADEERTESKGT

Q: For `COc1cc(N2CC[C@@H](Oc3ccc(C(F)(F)F)cc3)C2=O)ccc1OCC(C)(C)O` [Example 9, (R)-1-(4-(2-Hydroxy-2-methylpropoxy)-3-methoxyphenyl)-3-(4-(trifluoromethyl)phenoxy)pyrrolidin-2-one], which Ki is on record?
A: 23 nM

Q: How did the Ki turn out when `COc1cc(N2CC[C@H](Oc3ccc(C(F)(F)F)cc3)C2=O)ccc1OCC(C)(C)O` [Example 10, (S)-1-(4-(2-Hydroxy-2-methylpropoxy)-3-methoxyphenyl)-3-(4-(trifluoromethyl)phenoxy)pyrrolidin-2-one] was run?
A: 6000 nM

same assay, conditions: Table C; membranes of HEK-293 cells expressing mutated (E4Q, A5T) hMCHR1; competition with [Phe13,[125I]Tyr19]-MCH

Q: How did the Ki turn out when `Cc1cc(N2CCC(Oc3ccc(OC(F)(F)F)cc3)C2=O)ccc1OCC[S+](C)[O-]` (stereo not shown) [Example 101, 1-(3-Methyl-4-(2-(methylsulfinyl)ethoxy)phenyl)-3-(4-(trifluoromethoxy)phenoxy)pyrrolidin-2-one] was run?
A: 77 nM

Q: `Cc1cc(N2CC[C@@H](Oc3ccc(-c4ccccc4)cc3)C2=O)ccc1OCCS(C)(=O)=O` [Example 105, (R)-3-(Biphenyl-4-yloxy)-1-(3-methyl-4-(2-(methylsulfonyl)ethoxy)phenyl)pyrrolidin-2-one] was tested. Which Ki did it give?
A: 2 nM

Q: Which Ki does the source give for `Cc1cc(N2CC[C@H](Oc3ccc(-c4ccccc4)cc3)C2=O)ccc1OCCS(C)(=O)=O` [Example 106, (S)-3-(Biphenyl-4-yloxy)-1-(3-methyl-4-(2-(methylsulfonyl)ethoxy)phenyl)pyrrolidin-2-one] here?
A: 636 nM

Q: With `Cc1cc(N2CCC(Oc3ccc(-c4ccccc4F)cc3)C2=O)ccc1OCCS(C)(=O)=O` (stereo not shown) [Example 107] as the compound, how does the Ki read?
A: 5 nM

Q: With `Cc1cc(N2CCC(Oc3ccc(-c4ccncc4)cc3)C2=O)ccc1OCCS(C)(=O)=O` (stereo not shown) [Example 113, 1-(3-Methyl-4-(2-(methylsulfonyl)ethoxy)phenyl)-3-(4-(pyridin-4-yl)phenoxy)pyrrolidin-2-one] as the compound, how does the Ki read?
A: 55 nM

Q: How did the Ki turn out when `Cc1cc(N2CCC(Oc3ccc(C4CC4)cc3)C2=O)ccc1OCCS(C)(=O)=O` (stereo not shown) [Example 114] was run?
A: 7 nM

same assay, conditions: Table D; membranes of HEK-293 cells expressing mutated (E4Q, A5T) hMCHR1; competition with [Phe13,[125I]Tyr19]-MCH

Q: `COc1cc(N2CC=C(Oc3ccc(C4CC4)cc3)C2=O)ccc1OCC(C)(C)O` [Example 116, 3-(4-Cyclopropylphenoxy)-1-(4-(2-hydroxy-2-methylpropoxy)-3-methoxyphenyl)-1H-pyrrol-2(5H)-one] was tested. Which Ki did it give?
A: 3 nM

Q: Which Ki does the source give for `COc1cc(N2CC=C(Oc3ccc(C4CC4)cc3)C2=O)ccc1O` [Example 120] here?
A: 10 nM
